This is an account of results in patent US9695152B2, “3,4-dihydro-2H-isoquinoline-1-one and 2,3-dihydro-isoindol-1-one compounds” (Hoffmann-La Roche Inc., priority 2013, dated 2017).

For orientation: EC50 means the midpoint of the concentration-response curve.

For experiment [1] the following is noted: rat, cited from earlier work; for plasma aldosterone: 4 weeks (FAD286), 4 and 8 weeks (spironolactone) of treatment.
The conditions of experiment [2]: rats with experimental heart failure; cited from earlier work.
In experiment [3] the target is T1, CYP11B2 (Homo sapiens (Human), UniProt P19099). As to the kind of experiment: G-402 cellular enzyme assay, human CYP11B2 (aldosterone release, HTRF). Format: cell-based. The note with it: G-402 cells expressing human CYP11B2, 1 μM Deoxycorticosterone. The text has this: (§1) Herein we identified the use of the G-402 cell line as a host cell to ectopically express (transiently or stably) enzymes of the CYP11 family. Specifically we developed stable G-402 cells expressing ectopically human CYP11B1, human CYP11B2, human CYP11A1, cynmolgus CYP11B1 or cynomolgus CYP11B2 enzyme activity. Importantly the identified cell line G-402 expresses co-factors (adrenodoxin and adrenodoxin reductase) important for the activity of the CYP11 family and no relevant enzyme activity of the CYP11 family (in comparison to H295R cells) was detected in these cells. Therefore the G-402 cell line is uniquely suited as a host cell for the ectopic expression of enzymes from the CYP11 family.
T1 sequence (P19099 25-503): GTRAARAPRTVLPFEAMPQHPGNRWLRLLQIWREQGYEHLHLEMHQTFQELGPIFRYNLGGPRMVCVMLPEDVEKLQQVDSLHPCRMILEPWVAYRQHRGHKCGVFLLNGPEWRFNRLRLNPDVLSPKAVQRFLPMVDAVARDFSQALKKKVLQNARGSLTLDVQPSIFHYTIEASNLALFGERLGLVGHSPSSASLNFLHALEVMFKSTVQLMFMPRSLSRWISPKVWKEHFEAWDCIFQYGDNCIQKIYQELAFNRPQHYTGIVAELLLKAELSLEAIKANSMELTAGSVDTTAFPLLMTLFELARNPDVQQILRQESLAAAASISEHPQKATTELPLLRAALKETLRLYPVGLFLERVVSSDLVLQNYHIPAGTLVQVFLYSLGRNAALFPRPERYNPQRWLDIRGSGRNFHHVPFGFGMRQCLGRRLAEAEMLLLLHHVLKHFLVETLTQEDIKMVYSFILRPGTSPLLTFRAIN
(§2) G-402 cells can be obtained from ATCC (CRL-1440) and were originally derived from a renal leiomyoblastoma.
(§3) The expression plasmids contains the ORF for either human/cyno CYP11B1 or CYP11B2 under the control of a suitable promoter (CMV-promoter) and a suitable resistance marker (neomycin). Using standard techniques the expression plasmid is transfected into G-402 cells and these cells are then selected for expressing the given resistance markers. Individual cell-clones are then selected and assessed for displaying the desired enzymatic activity using 11-Deoxycorticosterone (Cyp11B2) or 11-Deoxycortisol (Cyp11B1) as a substrate.
(§4) G-402 cells expressing CYP11 constructs were established as described above and maintained in McCoy's 5a Medium Modified, ATCC Catalog No. 30-2007 containing 10% FCS and 400 μg/ml G418 (Geneticin) at 37° C. under an atmosphere of 5% CO2/95% air. Cellular enzyme assays were performed in DMEM/F12 medium containing 2.5% charcoal treated FCS and appropriate concentration of substrate (0.3-10 uM 11-Deoxycorticosterone, 11-Deoxycortisol or Corticosterone). For assaying enzymatic activity, cells were plated onto 96 well plates and incubated for 16 h. An aliquot of the supernatant is then transferred and analyzed for the concentration of the expected product (Aldosterone for CYP11B2; Cortisol for CYP11B1). The concentrations of these steroids can be determined using HTRF assays from CisBio analyzing either Aldosterone or Cortisol.
(§5) Inhibition of the release of produced steroids can be used as a measure of the respective enzyme inhibition by test compounds added during the cellular enzyme assay. The dose dependent inhibition of enzymatic activity by a compound is calculated by means of plotting added inhibitor concentrations (x-axes) vs. measured steroid/product level (y-axes). The inhibition is then calculated by fitting the following 4-parameter sigmoidal function (Morgan-Mercer-Flodin (MMF) model) to the raw data points using the least squares method:
(§6) [formula] wherein, A is the maximum y value, B is the EC50 factor determined using XLFit, C is the minimum y value and D is the slope value.
(§7) EC50 values for compounds claimed herein were tested with the G402-based assay system described. Cyp11B2 enzyme activity was tested in presence of 1 μM Deoxycorticosterone and variable amounts of inhibitors; Cyp11B1 enzyme activity was tested in presence of 1 μM Deoxycortisol and variable amounts of inhibitors.
For orientation: TR-FRET usually uses a lanthanide donor and a delayed reading to cut background.

In another experiment the target is human CYP11B1 (Homo sapiens (Human), UniProt P15538). As to the kind of experiment: G-402 cellular enzyme assay, human CYP11B1 (cortisol release, HTRF). Format: cell-based. The note with it: G-402 cells expressing human CYP11B1, 1 μM Deoxycortisol.
Sequence of human CYP11B1 (P15538 25-503): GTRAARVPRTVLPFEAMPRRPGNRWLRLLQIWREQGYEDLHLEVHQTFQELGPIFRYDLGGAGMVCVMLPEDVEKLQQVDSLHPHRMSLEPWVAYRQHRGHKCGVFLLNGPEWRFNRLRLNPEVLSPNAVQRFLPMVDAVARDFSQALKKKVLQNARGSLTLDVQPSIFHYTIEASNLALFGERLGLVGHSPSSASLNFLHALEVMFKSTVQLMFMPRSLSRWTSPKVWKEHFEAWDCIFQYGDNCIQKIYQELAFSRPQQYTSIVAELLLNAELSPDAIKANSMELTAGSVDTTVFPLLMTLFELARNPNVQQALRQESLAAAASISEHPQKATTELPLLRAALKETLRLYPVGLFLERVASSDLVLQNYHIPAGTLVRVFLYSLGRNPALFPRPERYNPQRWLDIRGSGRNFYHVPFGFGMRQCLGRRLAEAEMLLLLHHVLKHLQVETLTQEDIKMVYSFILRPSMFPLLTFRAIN
From the text: as §1, §2, §3, §4, §5, §6, §7

Experiment [4] concerns the target T1, CYP11B2. The note with it: patients with primary aldosteronism, cited from earlier work.

For the compound `N#Cc1ccc([C@H]2CCCc3cncn32)cc1` [FAD286], in experiment [1], the plasma aldosterone result is on record as “reduced”; the “angiotensin II and salt-stimulated PAI-1 mRNA expression in the aorta and the heart” value is “not”. Moreover, in experiment [2], the “blood pressure and cardiovascular function and structure” value is given as “improved”.
In the case of `CC(=O)S[C@@H]1CC2=CC(=O)CC[C@]2(C)[C@H]2CC[C@@]3(C)[C@@H](CC[C@@]34CCC(=O)O4)[C@H]12` [spironolactone], in experiment [1], the plasma aldosterone result is on record as “increased”; the “angiotensin II and salt-stimulated PAI-1 mRNA expression in the aorta and the heart” value is recorded as “enhanced”.
Turning to `CC1(C)c2cc(C#N)ccc2C(=O)N1c1cncc(NC2CN(S(=O)(=O)C3CC3)C2)c1` [Example 31, 2-[5-[(1-Cyclopropylsulfonylazetidin-3-yl)amino]-3-pyridyl]-3,3-dimethyl-1-oxo-isoindoline-5-carbonitrile], the EC50 at CYP11B2 [3] was 12 nM; at human CYP11B1, 7000 nM.
For `CC1(C)c2cc(Cl)ccc2C(=O)N1c1cncc(NC2CN(C(=O)c3ncccc3Cl)C2)c1` [Example 9, 5-Chloro-2-[5-[[1-(3-chloropyridine-2-carbonyl)azetidin-3-yl]amino]pyridin-3-yl]-3,3-dimethylisoindol-1-one], the figures for the half-maximal effective concentration (EC50) on CYP11B2 [3] and at human CYP11B1 were 7 nM and 297 nM, respectively.
Take `Cn1cncc1C(=O)N1CCC(Nc2cncc(N3C(=O)c4ccc(C#N)cc4C3(C)C)c2)CC1` [Example 42, 3,3-Dimethyl-2-[5-[[1-(3-methylimidazole-4-carbonyl)-4-piperidyl]amino]-3-pyridyl]-1-oxo-isoindoline-5-carbonitrile]: the EC50 at CYP11B2 [3] came to 56 nM; on human CYP11B1, 10600 nM.
With `Cc1cncc(C(=O)N2CC(Nc3cncc(N4CCc5cc(Cl)ccc5C4=O)c3)C2)c1` [Example 18, 6-Chloro-2-[5-[[1-(5-methylpyridine-3-carbonyl)azetidin-3-yl]amino]pyridin-3-yl]-3,4-dihydroisoquinolin-1-one], the EC50 worked out at 9 nM on CYP11B2 [3] and 1290 nM at human CYP11B1.
Consider `CC1(C)c2cc(Cl)ccc2C(=O)N1c1cncc(NC2CN(S(=O)(=O)C3CC3)C2)c1` [Example 1, 5-Chloro-2-[5-[(1-cyclopropylsulfonylazetidin-3-yl)amino]pyridin-3-yl]-3,3-dimethylisoindol-1-one], for which the EC50 on CYP11B2 [3] came out at 9 nM; at human CYP11B1, 1250 nM.
For `O=C1c2ccc(Cl)cc2CCN1c1cncc(NC2CN(S(=O)(=O)C3CC3)C2)c1` [Example 15, 6-Chloro-2-[5-[(1-cyclopropylsulfonylazetidin-3-yl)amino]pyridin-3-yl]-3,4-dihydroisoquinolin-1-one], the concentration giving a half-maximal response (EC50) on CYP11B2 [3] worked out at 148 nM; on human CYP11B1, 9560 nM.
For `C[C@@H]1c2cc(Cl)ccc2C(=O)N1c1cncc(NC2CN(S(=O)(=O)C3CC3)C2)c1` (single isomer, unassigned) [Example 30, (3S or 3R)-5-Chloro-2-[5-[(1-cyclopropylsulfonylazetidin-3-yl)amino]-3-pyridyl]-3-methyl-isoindolin-1-one] the same measures were 18 nM and 652 nM.
For `CN(c1cncc(N2C(=O)c3ccc(Cl)cc3C2(C)C)c1)C1CN(S(=O)(=O)C2CC2)C1` [Example 3, 5-Chloro-2-[5-[(1-cyclopropylsulfonylazetidin-3-yl)-methylamino]pyridin-3-yl]-3,3-dimethylisoindol-1-one], in that order: 0.4 nM and 18 nM.
`Cc1ccncc1C(=O)N1CC(Nc2cncc(N3C(=O)c4ccc(Cl)cc4C3(C)C)c2)C1` [Example 10, 5-Chloro-3,3-dimethyl-2-[5-[[1-(4-methylpyridin-3-carbonyl)azetidin-3-yl]amino]pyridin-3-yl]isoindol-1-one]: the results for the concentration for a half-maximal effect (EC50) at CYP11B2 [3] and at human CYP11B1 were 11 nM and 1740 nM, respectively.
As for `N#Cc1ccc([C@H]2CCc3cncn32)c(F)c1` [LCI699], the circulating aldosterone levels entry on CYP11B2 [4] (oral) is “significantly lower”. Moreover, on CYP11B2 [4], the blood pressure entry was “mildly decreased” and the hypokalemia result is reported as “corrected”.
For the compound `Cc1ccncc1C(=O)N1CC2(CC(Nc3cncc(N4C(=O)c5ccc(Cl)cc5C4(C)C)c3)C2)C1` [Example 19, 5-Chloro-3,3-dimethyl-2-[5-[[2-(4-methylpyridine-3-carbonyl)-2-azaspiro[3.3]heptan-6-yl]amino]pyridin-3-yl]isoindol-1-one], the results for the concentration for a half-maximal effect (EC50) at CYP11B2 [3] and at human CYP11B1 were 86 nM and 10900 nM, respectively.
For `Cn1cncc1C(=O)N1CC(Nc2cncc(N3C(=O)c4ccc(C#N)cc4C3(C)C)c2)C1` [Example 39, 3,3-Dimethyl-2-[5-[[1-(3-methylimidazole-4-carbonyl)azetidin-3-yl]amino]-3-pyridyl]-1-oxo-isoindoline-5-carbonitrile], in that order: 25 nM and 13900 nM.
For `Cn1ccnc1C(=O)N1CC(Nc2cncc(N3C(=O)c4ccc(Cl)cc4C3(C)C)c2)C1` [Example 2, 5-Chloro-3,3-dimethyl-2-[5-[[1-(1-methylimidazole-2-carbonyl)azetidin-3-yl]amino]-3-pyridyl]isoindolin-1-one], in that order: 4 nM and 450 nM.
In the case of `Cn1cc(C(=O)N2CC(Nc3cncc(N4CCc5cc(Cl)ccc5C4=O)c3)C2)cn1` [Example 21, 6-Chloro-2-[5-[[1-(1-methylpyrazole-4-carbonyl)azetidin-3-yl]amino]-3-pyridyl]-3,4-dihydroisoquinolin-1-one], the values for the EC50 at CYP11B2 [3] and on human CYP11B1 were 7 nM and 16900 nM, respectively.
Take `CN(c1cncc(N2C(=O)c3ccc(Cl)cc3C2(C)C)c1)C1CCN(S(=O)(=O)C2CC2)CC1` [Example 6]: the concentration giving a half-maximal response (EC50) is 1 nM at CYP11B2 [3] and 4 nM at human CYP11B1.
For `CC1c2cc(Cl)ccc2C(=O)N1c1cncc(NC2CN(S(=O)(=O)C3CC3)C2)c1` (stereo not drawn) [Example 14, 5-Chloro-2-[5-[(1-cyclopropylsulfonylazetidin-3-yl)amino]pyridin-3-yl]-3-methyl-3H-isoindol-1-one], the half-maximal effective concentration (EC50) amounted to 131 nM on CYP11B2 [3] and 2890 nM on human CYP11B1.
For the compound `Cc1ccncc1C(=O)N1CC(Nc2cncc(N3C(=O)c4ccc(Cl)cc4[C@H]3C)c2)C1` (single isomer, unassigned) [Example 25, (3R or 3S)-5-Chloro-3-methyl-2-[5-[[1-(4-methylpyridine-3-carbonyl)azetidin-3-yl]amino]-3-pyridyl]isoindolin-1-one], the values for the half-maximal effective concentration (EC50) on CYP11B2 [3] and on human CYP11B1 were 7 nM and 4360 nM, respectively.
In the case of `O=C(c1ncccc1Cl)N1CC(Nc2cncc(N3CCc4cc(Cl)ccc4C3=O)c2)C1` [Example 17, 6-Chloro-2-[5-[[1-(3-chloropyridine-2-carbonyl)azetidin-3-yl]amino]pyridin-3-yl]-3,4-dihydroisoquinolin-1-one], the EC50 at CYP11B2 [3] is 145 nM; at human CYP11B1, 1910 nM.
As for `C[C@H]1c2cc(Cl)ccc2C(=O)N1c1cncc(NC2CN(C(=O)c3ncccc3Cl)C2)c1` (single isomer, unassigned) [Example 28, (3S or 3R)-5-Chloro-2-[5-[[1-(3-chloropyridine-2-carbonyl)azetidin-3-yl]amino]-3-pyridyl]-3-methyl-isoindolin-1-one], the concentration for a half-maximal effect (EC50) on CYP11B2 [3] turned out to be 27 nM; on human CYP11B1, 533 nM.
For `CC1(C)c2cc(Cl)ccc2C(=O)N1c1cncc(NC2CCCN(S(=O)(=O)C3CC3)C2)c1` (single isomer, unassigned; (+)) [Example 7, (+)-5-Chloro-2-[5-[[(3R or 3S)-1-cyclopropylsulfonylpiperidin-3-yl]amino]pyridin-3-yl]-3,3-dimethylisoindol-1-one], in that order: 230 nM and above 30000 nM.
With `Cc1cncc(C(=O)N2CC(Nc3cncc(N4C(=O)c5ccc(Cl)cc5C4(C)C)c3)C2)c1` [Example 11, 5-Chloro-3,3-dimethyl-2-[5-[[1-(5-methylpyridine-3-carbonyl)azetidin-3-yl]amino]pyridin-3-yl]isoindol-1-one], the half-maximal effective concentration (EC50) turned out to be 3 nM at CYP11B2 [3] and 1950 nM at human CYP11B1.
